Reference: PMC10221074, “Functional Profiling of the A-Family of Venom Peptides from the Wolf Spider Lycosa shansia” (Toxins, 2023)

Legend:
[1] = test system: Pseudomonas aeruginosa DSM 1117; test: Antibacterial growth assay (OD600); settings: for Bacterial growth relative to medium, P. aeruginosa (1117), replicate 1 / Bacterial growth relative to medium, P. aeruginosa (1117), replicate 2 / Bacterial growth relative to medium, P. aeruginosa (1117), replicate 3: OD600, medium = 100, MH II broth, 37 °C, peptide 200 µM mixed 50 µL + 50 µL with bacteria, Figure 7: 48 h; for Bacterial growth relative to medium, P. aeruginosa (1117), replicate 1: replicate column 1; for Bacterial growth relative to medium, P. aeruginosa (1117), replicate 2: replicate column 2; for Bacterial growth relative to medium, P. aeruginosa (1117), replicate 3: replicate column 3
A/Hessen/1/2003 (H3N2) = assay type: cell-based, influenza virus
A/Hamburg/05/2009 (H1N1) = assay type: cell-based, influenza virus
[2] = test system: Staphylococcus aureus DSM 2569; test: Antibacterial growth assay (OD600); settings: for Bacterial growth relative to medium, S. aureus, replicate 1 / Bacterial growth relative to medium, S. aureus, replicate 2 / Bacterial growth relative to medium, S. aureus, replicate 3: OD600, medium = 100, MH II broth, 37 °C, peptide 200 µM mixed 50 µL + 50 µL with bacteria, Figure 7: 48 h; for Bacterial growth relative to medium, S. aureus, replicate 1: replicate column 1; for Bacterial growth relative to medium, S. aureus, replicate 2: replicate column 2; for Bacterial growth relative to medium, S. aureus, replicate 3: replicate column 3; for Antibacterial activity (in words): S. aureus DSM 2569, growth after 48 h
Description: (§1) Cryo-conserved cultures of selected bacterial strains (Table 4) were transferred to Tryptic Soy Agar (TSA) plates (Carl Roth) with a sterile inoculation loop, sealed with Parafilm (BEMIS, Neenah, WI, USA), and incubated for 1–2 days at 37 °C depending on growth. Single colonies were picked and transferred into 2–3 mL of the Mueller–Hinton II (MH II) broth (BD, Heidelberg, Germany). The bacteria were cultivated overnight, subcultured on fresh medium and grown for 3–4 h before testing at 37 °C, with shaking at 180 rpm. We measured the optical density at 600 nm (OD600) of 1 mL of the bacterial suspensions in polystyrene cuvettes (SARSTED, Nümbrecht, Germany) using an Ultrospec 10 spectrophotometer (Biochrome, Cambridge, UK). We then diluted them with the MH II medium to the preferred OD600 (Table 2). The peptides were dissolved in DMSO to generate 10 mmol/L stocks and diluted with the MH II medium to 200 µM before the assay. We used 10 µg/mL (~40 µg/mL for S. epidermidis) gentamicin and colistin (Sigma-Aldrich, Taufkirchen, Germany), DMSO and the medium only as controls. The bacteria were transferred to 96-multiwell plates with a final volume of 100 µL per well (50 µL bacterial suspension, and 50 µL test peptide). The OD600 was measured at 0, 24 and 48 h using a BioTek Eon microplate reader followed by analysis with Gen5 v2.09.

[3] = test system: Pseudomonas aeruginosa DSM 50071; test: Antibacterial growth assay (OD600); settings: OD600, medium = 100, MH II broth, 37 °C, peptide 200 µM mixed 50 µL + 50 µL with bacteria, Figure 7: 48 h; for Bacterial growth relative to medium, P. aeruginosa (50071), replicate 1: replicate column 1; for Bacterial growth relative to medium, P. aeruginosa (50071), replicate 2: replicate column 2; for Bacterial growth relative to medium, P. aeruginosa (50071), replicate 3: replicate column 3
Description: as §1

[4] = test system: Micrococcus luteus DSM 20030; test: Antibacterial growth assay (OD600); settings: for Bacterial growth relative to medium, M. luteus, replicate 1 / Bacterial growth relative to medium, M. luteus, replicate 2 / Bacterial growth relative to medium, M. luteus, replicate 3: OD600, medium = 100, MH II broth, 37 °C, peptide 200 µM mixed 50 µL + 50 µL with bacteria, Figure 7: 48 h; for Bacterial growth relative to medium, M. luteus, replicate 1: replicate column 1; for Bacterial growth relative to medium, M. luteus, replicate 2: replicate column 2; for Bacterial growth relative to medium, M. luteus, replicate 3: replicate column 3
[5] = test system: B/Malaysia/2506/2004 (B-Mal); assay type: cell-based, influenza virus
[6] = test system: Staphylococcus epidermidis DSM 28319; test: Antibacterial growth assay (OD600); settings: for Bacterial growth relative to medium, S. epidermidis, replicate 1 / Bacterial growth relative to medium, S. epidermidis, replicate 2 / Bacterial growth relative to medium, S. epidermidis, replicate 3: OD600, medium = 100, MH II broth, 37 °C, peptide 200 µM mixed 50 µL + 50 µL with bacteria, Figure 7: 48 h; for Bacterial growth relative to medium, S. epidermidis, replicate 1: replicate column 1; for Bacterial growth relative to medium, S. epidermidis, replicate 2: replicate column 2; for Bacterial growth relative to medium, S. epidermidis, replicate 3: replicate column 3; for Antibacterial activity (in words): S. epidermidis DSM 28319, growth after 48 h
Description: as §1

[7] = test system: Escherichia coli BL21(DE3); test: Antibacterial growth assay (OD600); settings: for Bacterial growth relative to medium, E. coli, replicate 1 / Bacterial growth relative to medium, E. coli, replicate 2 / Bacterial growth relative to medium, E. coli, replicate 3: OD600, medium = 100, MH II broth, 37 °C, peptide 200 µM mixed 50 µL + 50 µL with bacteria, Figure 7: 48 h; for Bacterial growth relative to medium, E. coli, replicate 1: replicate column 1; for Bacterial growth relative to medium, E. coli, replicate 2: replicate column 2; for Bacterial growth relative to medium, E. coli, replicate 3: replicate column 3
Description: as §1

G. mellonella larvae = test: Insecticidal activity by injection into larvae; assay type: in vivo, Galleria mellonella
Description: Insecticidal activity was determined using fourth and fifth instar G. mellonella larvae (L4/L5) obtained from Fauna Topics Zoobedarf Zucht und Handels GmbH (Marbach am Neckar, Germany). Because spider venom is injected via chelicerae, we opted for an injection-based assay to reflect the natural process of envenomation as described earlier. The peptides were dissolved in a 1:1 mixture of DMSO and water to a final concentration of 10 mmol/L. We injected 50 ng of each peptide into the pseudopodium using Omnican-F, 0.30 × 12 mm/G 30 × 1/2”, a 1 mL syringe adjusted to a WPI manual microsyringe injector setup. Injections with water, DMSO/water (1:1) and ethanol (90%) were used as controls, alongside untreated specimens. Insecticidal activity screenings were performed in cohorts of 10 larvae with 3 replicates (30 specimens per treatment or control). […] Survival was monitored every 24 h for 5 days. Mortality was calculated based on the ratio of dead to injected specimens.

[8] = test system: Listeria monocytogenes DSM 20600; test: Antibacterial growth assay (OD600); settings: for Bacterial growth relative to medium, L. monocytogenes, replicate 1 / Bacterial growth relative to medium, L. monocytogenes, replicate 2 / Bacterial growth relative to medium, L. monocytogenes, replicate 3: OD600, medium = 100, MH II broth, 37 °C, peptide 200 µM mixed 50 µL + 50 µL with bacteria, Figure 7: 48 h; for Bacterial growth relative to medium, L. monocytogenes, replicate 1: replicate column 1; for Bacterial growth relative to medium, L. monocytogenes, replicate 2: replicate column 2; for Bacterial growth relative to medium, L. monocytogenes, replicate 3: replicate column 3; for Antibacterial activity (in words): L. monocytogenes DSM 20600, growth after 48 h
[9] = test system: panel of seven bacterial strains; test: Antibacterial growth assay (OD600), statements on the whole panel; assay type: cell-based; settings: growth after 48 h
[10] = […], replicate 4 (additional internal control)

| Molecule | Bacterial growth relative to medium, P. aeruginosa (1117), replicate 1 [1] | Bacterial growth relative to medium, P. aeruginosa (1117), replicate 2 [1] | Bacterial growth relative to medium, P. aeruginosa (1117), replicate 3 [1] | Viability of infected cells relative to aprotinin, Replicate 1 (A/Hessen/1/2003 (H3N2)) | Viability of infected cells relative to aprotinin, Replicate 2 (A/Hessen/1/2003 (H3N2)) | Viability of infected cells relative to aprotinin, Replicate 3 (A/Hessen/1/2003 (H3N2)) | Viability of infected cells relative to aprotinin, Replicate 1 (A/Hamburg/05/2009 (H1N1)) | Viability of infected cells relative to aprotinin, Replicate 2 (A/Hamburg/05/2009 (H1N1)) | Viability of infected cells relative to aprotinin, Replicate 3 (A/Hamburg/05/2009 (H1N1)) | Bacterial growth relative to medium, S. aureus, replicate 1 [2] | Bacterial growth relative to medium, S. aureus, replicate 2 [2] | Bacterial growth relative to medium, S. aureus, replicate 3 [2] | Bacterial growth relative to medium, P. aeruginosa (50071), replicate 1 [3] | Bacterial growth relative to medium, P. aeruginosa (50071), replicate 2 [3] | Bacterial growth relative to medium, P. aeruginosa (50071), replicate 3 [3] | Bacterial growth relative to medium, M. luteus, replicate 1 [4] | Bacterial growth relative to medium, M. luteus, replicate 2 [4] | Bacterial growth relative to medium, M. luteus, replicate 3 [4] | Viability of infected cells relative to aprotinin, Replicate 1 [5] | Viability of infected cells relative to aprotinin, Replicate 2 [5] | other results |
| --- | --- | --- | --- | --- | --- | --- | --- | --- | --- | --- | --- | --- | --- | --- | --- | --- | --- | --- | --- | --- | --- |
| SLLGLLDVVKSKIGQT [LS-AMP-A15] | 80.9004 | 77.0275 | 69.3765 | 0.1635 | 0.1644 | 0.1569 | 0.04491 | 0.03692 | 0.03514 | 62.2914 | 63.5709 | 94.1265 | 101.444 | 115.913 | 84.6093 | 87.1981 | 100.338 | 54.7585 | 0.05034 | 0.05082 | Viability of infected cells relative to aprotinin, Replicate 4 (A/Hessen/1/2003 (H3N2); [10]): 0.1576; Antibacterial activity (in words) [2]: limited activity; Viability of infected cells relative to aprotinin, Replicate 3 [5]: 0.05878; Bacterial growth relative to medium, S. epidermidis, replicate 1 [6]: 84.6766; Bacterial growth relative to medium, S. epidermidis, replicate 2 [6]: 83.7361; Bacterial growth relative to medium, S. epidermidis, replicate 3 [6]: 92.3812; Antibacterial activity (in words) [6]: limited activity; Bacterial growth relative to medium, E. coli, replicate 1 [7]: 103.062; Bacterial growth relative to medium, E. coli, replicate 2 [7]: 89.9768; Bacterial growth relative to medium, E. coli, replicate 3 [7]: 48.0425; Insecticidal effect on larvae (in words) (G. mellonella larvae; 50 ng peptide injected, 3 cohorts of 10 larvae, survival monitored for 5 days): Individual dead insects; Bacterial growth relative to medium, L. monocytogenes, replicate 1 [8]: 129.232; Bacterial growth relative to medium, L. monocytogenes, replicate 2 [8]: 92.1308; Bacterial growth relative to medium, L. monocytogenes, replicate 3 [8]: 85.5096 |
| CCO [EtOH, ethanol, reference compound] |  |  |  |  |  |  |  |  |  |  |  |  |  |  |  |  |  |  |  |  | Mortality (G. mellonella larvae; ethanol injected as positive control, after 5 days): up to 50% |
| SLFGLLDLVKNKVGQTGLL [LS-AMP-A2] | 64.5445 | 72.5374 | 62.225 | 0.05065 | 0.0432 | 0.03436 | 0.06714 | 0.03978 | 0.06798 | 88.0937 | 87.9986 | 104.003 | 100.368 | 113.753 | 87.799 | 118.679 | 181.194 | 65.5667 | 0.03127 | 0.04494 | Antibacterial activity (in words) ([1]; P. aeruginosa DSM 1117, growth after 48 h): less effective; Viability of infected cells relative to aprotinin, Replicate 4 (A/Hamburg/05/2009 (H1N1); [10]): 0.02665; Viability of infected cells relative to aprotinin, Replicate 5 (A/Hamburg/05/2009 (H1N1); […], replicate 5 (additional internal control)): 0.03333; Antibacterial activity over the panel (in words) [9]: limited activity; Viability of infected cells relative to aprotinin, Replicate 3 [5]: 0.06464; Bacterial growth relative to medium, S. epidermidis, replicate 1 [6]: 112.577; Bacterial growth relative to medium, S. epidermidis, replicate 2 [6]: 143.959; Bacterial growth relative to medium, S. epidermidis, replicate 3 [6]: 90.9149; Bacterial growth relative to medium, E. coli, replicate 1 [7]: 128.192; Bacterial growth relative to medium, E. coli, replicate 2 [7]: 150.174; Bacterial growth relative to medium, E. coli, replicate 3 [7]: 124.918; Antibacterial activity (in words) [8]: less effective; Bacterial growth relative to medium, L. monocytogenes, replicate 1 [8]: 66.982; Bacterial growth relative to medium, L. monocytogenes, replicate 2 [8]: 116.711; Bacterial growth relative to medium, L. monocytogenes, replicate 3 [8]: 86.9442 |
| SLLGLLDVVKNKVGQIG [LS-AMP-A4] | 67.901 | 83.7452 | 58.9242 | 0.1134 | 0.06953 | 0.04762 | 0.03111 | 0.02825 | 0.01475 | 64.8588 | 69.2609 | 80.5088 | 97.6103 | 110.944 | 86.4168 | 48.8727 | 93.5811 | 47.3458 | 0.05108 | 0.07356 | Antibacterial activity (in words) [2]: able to decrease the growth; Antibacterial activity (in words) ([4]; M. luteus DSM 20030, growth after 48 h): able to decrease the growth; Antibacterial activity over the panel (in words) [9]: inhibited the growth of most of the bacteria except two; Viability of infected cells relative to aprotinin, Replicate 3 [5]: 0.0764; Bacterial growth relative to medium, S. epidermidis, replicate 1 [6]: 50.7409; Bacterial growth relative to medium, S. epidermidis, replicate 2 [6]: 49.8658; Bacterial growth relative to medium, S. epidermidis, replicate 3 [6]: 70.1306; Antibacterial activity (in words) [6]: able to decrease the growth; Antibacterial activity (in words) ([7]; E. coli BL21(DE3), growth after 48 h): able to decrease the growth; Bacterial growth relative to medium, E. coli, replicate 1 [7]: 63.5471; Bacterial growth relative to medium, E. coli, replicate 2 [7]: 64.6002; Bacterial growth relative to medium, E. coli, replicate 3 [7]: 38.7121; Antibacterial activity (in words) [8]: able to decrease the growth; Bacterial growth relative to medium, L. monocytogenes, replicate 1 [8]: 47.529; Bacterial growth relative to medium, L. monocytogenes, replicate 2 [8]: 64.3679; Bacterial growth relative to medium, L. monocytogenes, replicate 3 [8]: 81.7792 |
